The test system of series [1] is GBM-R cells (U87MG-R and A172-R). The series is described as follows: GBM-R cell viability time course (FIG. 2F). The class given is cell-based, human. To be noted: BMX 10 μM alone, FIG. 2F (24, 48, and 72 hrs). The method, then: (A) Chemical structure of BMX. (B) Cell viability of GBM and GBM-R cell lines after treatment with 0.5, 10, 15, 30, or 50 μM BMX. (C) Cell viability of GBM and GBM-R cell lines after treatment with 0.25, 50, 100, 200, 400, or 800 μM TMZ. (D) GBM and GBM-R cell viability after treatment with 10 μM BMX with or without TMZ at various concentrations (0.25, 50, 100, 200, 400, or 800 μM) for 24 hrs. (E) GBM and GBM-R cell viability after treatment with 50 μM TMZ with or without BMX at various concentrations (0.5, 10, 15, 30, or 50 μM) for 24 hrs. (F) GBM-R cell viability after treatment with 50 μM TMZ with or without 10 μM BMX for 24, 48, and 72 hrs. (G) Colony formation assay of GBM and GBM-R cell lines with BMX (0, 5, or 10 μM) with or without TMZ (50 μM) for 14 days. Data are represented as means±SEM from three experiments. *p<0.05 vs. control (A172 and U87MG); #p<0.05 vs. (A172-R and U87MG-R).
We plated 3000 GBM cells per well in 96-well plates and allowed them to adhere overnight. To validate cell line responsiveness to BMX and TMZ monotherapy, the cells were treated with different doses of BMX or TMZ for 24, 48, and 72 hrs. […] Following treatment, the absorption value was measured using a CCK8 kit (Targetmol, Shanghai, China) at the indicated time points. […]

For series [2], the system named is HT29 cells. The series is described as follows: Annexin V/PI flow cytometric analysis of apoptosis, HT29. The format is cell-based, human. The conditions noted are these: BMX, 48 hrs. How it is done: Apoptosis induction in different doses of BMX (0-10 μM) in the presence or absence of TMZ (50 μM) was assayed by the detection of membrane externalization of phosphatidylserine with the with the CF®488A Annexin V and PI Apoptosis Kit (Fremont, Calif., USA) following the manufacturer's instructions. All samples were then immediately analyzed by flow cytometry.
A general note: In flow cytometry, cells or beads pass a laser one at a time.

The next series concerns HCT116 cells. Put plainly: Clonogenic (colony formation) assay, HCT116. The format is cell-based. To be noted: Homo sapiens, HCT-116, 336 h, 14 days, read-out: IC50 values of TMZ, clonogenic assay. How it is done:
(§1) For the anchorage-dependent growth assay, 1000 cells were resuspended in the medium and seeded in 6-well plates. […] After 14 days, the media were removed and the cells were washed and fixed with 4% paraformaldehyde for 30 min, and stained with 0.1% crystal violet for 20 min at 25° C. The intensity of crystal violet was quantified by the absorbance of 570 nm after dissolving the stained cells with dimethyl sulfoxide (DMSO). The results are expressed as the average colony±SE from three independent experiments.

Series [3] deals with HT29 cells. The series is described as follows: Clonogenic (colony formation) assay, HT29. The class given is cell-based. To be noted: Homo sapiens, HT-29, 336 h, 14 days, read-out: IC50 values of TMZ, clonogenic assay. The method, then: as §1
The next series concerns RKO cells. Put plainly: Clonogenic (colony formation) assay, RKO. The class given is cell-based. The conditions noted are these: Homo sapiens, 336 h, 14 days, read-out: IC50 values of TMZ, clonogenic assay. The method, then: as §1

Broadly, the IC50 is the concentration at which inhibition is half-maximal.

Values joined by “and” are separate entries in the source; they are usually repeats but may differ in a detail not shown here. Equal values may be shown once.

`COc1ccc(COc2c(/C=C/C(=O)NO)ccc(OC)c2CC=C(C)C)cc1` [BMX, (E)-2-(4-Methoxybenzyloxy)-3-prenyl-4-methoxy-N-hydroxycinamide]: in series [1], the “cell viability (cytotoxic effect, fold)” value is 0.88 × and 0.77 × and 0.63 ×. The early apoptotic cells entry in the series on HT29 cells [2] is on record as “up to 23.78%”.

Turning to `Cn1nnc2c(C(N)=O)ncn2c1=O` [TMZ, Temozolomide, reference compound], the IC50 in the series with HCT116 cells was 138 ± 22.7 µM; in the series on HT29 cells [3], 359 ± 50.4 µM; with RKO cells, 244 ± 29.4 µM.
